Measured values from patent US11078196B2, “Heteroaryl amides as inhibitors of protein aggregation” (UCB Biopharma SRL, priority 2014, dated 2021).
Like-named read-outs stand apart in the source and are kept apart here.

How the values were obtained:
[1] = In vivo pharmacokinetics and brain distribution, single i.v. or p.o. dose; set-up: species or system male C57BL/6 mice; conditions: mice; for clearance / bioavailability: male, C57BL/6, mouse, plasma; for clearance: read-out: PK Clearance; for bioavailability: po, read-out: Oral Bioavailablility
Method: The pharmacokinetics and brain distribution of the compounds described herein was determined in male C57BL/6 mice following single intravenous or oral dose administration. A group of 54 male mice were divided into two groups of 27 mice. […] Blood samples were collected pre-dose and at 0.08, 0.25, 0.5, 1, 2, 4, 8, and 24 h post-dose (i.v.), and pre-dose, and at 0.25, 0.5, 1, 2, 4, 6, 8 and 24 h post-dose (p.o.). Blood was collected from sets of three mice at each time point in labeled microcentrifuge tubes containing K2EDTA as anticoagulant. Plasma samples were separated by centrifugation of whole blood and stored below −70° C. until bioanalysis. After collecting blood samples, mice were humanely euthanized by CO2 asphyxiation and brain was collected at the same time points. Following collection, the brain samples were washed in ice-cold phosphate buffer saline (pH 7.4), gently dried on filter paper, weighed and placed in polypropylene tubes. Further brain samples were homogenized using phosphate buffer saline pH 7.4 and the total homogenate volume was thrice the brain weight. The samples were then stored below −70° C. until bioanalysis. All samples were processed for analysis by protein precipitation using acetonitrile and analyzed with fit-for-purpose LC/MS/MS method (LLOQ: 1.01 ng/mL for plasma and brain). Pharmacokinetic parameters were calculated using the non-compartmental analysis tool of Phoenix WinNonlin (Version 6.3).

Stability in SGF = type: in vitro ADME
Plasma stability = type: in vitro ADME
[2] = tested on: Line 61 ASYN transgenic mouse; test: Round Beam Task, sensorimotor impairment; type: in vivo; conditions: for number of slips, Round Beam Task: Example 6A, three months, vs. vehicle-treated transgenic mice; for number of slips, Round Beam Motor Performance assay: Example 6B
Text: The Round Beam Task was used to assess sensorimotor impairments, using number of slips as the primary outcome measure (FIG. 4).

[3] = tested on: transgenic ASYN protein in Line 61 ASYN transgenic mouse; test: Western Blot analysis of cerebral cortical and hippocampal brain homogenates; type: in vivo
Method: (§1) Example 1 was evaluated in a transgenic mouse model of PD overexpressing human wild-type ASYN under the Thy-1 promoter (also referred to as the Line 61 ASYN transgenic mouse), by administering Example […] 0, 1, or 5 mg/kg (i.p.) once daily (five days per week) for three months and then assessing PD-relevant sensorimotor performance, biochemical alterations, and neuropathological changes in ASYN and related proteins.
(§2) Biochemical evaluations of oligomeric proteins using A11 antibody dot blot methods (including ASYN) in cortical homogenates were performed.

[4] = tested on: oligomers in Line 61 ASYN transgenic mouse; test: A11 antibody dot blot of oligomeric proteins in cortical homogenates; type: in vivo; conditions: 5 mg/kg; p<0.001 vs. vehicle-treated ASYN transgenic mice
Method: as §1, §2

[5] = tested on: ASYN in Line 61 ASYN transgenic mouse; test: ASYN immunolabeling in cortical neuropil and neuronal cell bodies; type: in vivo; conditions: for alpha-synuclein immunolabeling in cortical neuropil: p<0.0001 vs. vehicle-treated ASYN transgenic mice
Method: These neuropathological findings were reconfirmed in the current study using the methods described by Masliah and colleagues. Example 1 administration (1 and 5 mg/kg dosing) produced statistically significant decreases in ASYN levels as determined by effects on ASYN immunolabeling (FIGS. 6 and 7). There was a statistically significant increase in ASYN immunolabeling with the Millipore anti-alpha-synuclein antibody in the cortical neuropil (****p<0.0001) (FIG. 6A) and in neuronal cell bodies of ASYN transgenic mice (**p<0.01) (FIG. 6B) relative to non-transgenic/vehicle controls.

[6] = tested on: Line 61 ASYN transgenic mice; test: Fecal boli counts in a novel environment; type: in vivo, mouse
Method: An earlier published study included a report that Line 61 ASYN transgenic mice have decreased colonic motility, fecal output, and weight (Wang, L. et al. Neurogastroenterol. Motil. 2012, 24(9), e425-436). For the present study, an assessment of fecal boli counts was conducted in conjunction with a spontaneous locomotor activity test session. At the conclusion of a five-minute test session, the experimenter counted the number of fecal boli present in the test chamber, and the results are presented in FIG. 9.

[7] = tested on: cardiac ASYN in Line 61 ASYN transgenic mice; test: Post-mortem Western blot of cardiac ASYN; type: in vivo, mouse; conditions: p<0.0001 vs. vehicle-treated ASYN transgenic mice
Text: Like bowel dysfunction, alterations in cardiac biochemistry and function may precede Parkinson's disease diagnosis by 20 years or more. Well-characterized functional alterations in PD patients include altered heart rate variability and orthostatic hypotension (Kaufmann, H. et al., Handbook Clin. Neurol. 2013, 117, 259-278; Jain, S. et al., Neurobiol. Dis. 2012, 46(3), 572-580; Senard, J. M. et al., Rev. Neurol. (Paris) 2010, 166(10), 779-784; Post, K. K. et al., Parkinsonism Relat. Disord. 2008, 14(7), 524-531). These functional changes are accompanied by pathological findings of loss of myocardial noradrenergic innervation and the presence of ASYN aggregates in cardiac autonomic nerves (Jellinger, K. A., J. Neurol. Sci. 2011, 310 (1-2), 107-111). […] For the present study, post-mortem Western blot evaluations of cardiac ASYN by Western blot analysis were performed to confirm the presence in ASYN transgenic cardiac tissue and to evaluate the effects of Example 1 on transgenic cardiac levels of ASYN (FIG. 10). There was a statistically significant increase in detected cardiac levels of ASYN in vehicle-treated ASYN transgenic mice relative to vehicle-treated non-transgenic control mice (***p<0.001).

PDNG78 transgenic mice = test: Longitudinal retinal imaging of ASYN-GFP; type: in vivo, mouse; conditions: 5 mg/kg i.p., after approximately 60 days through 90 days
Method: A total of four imaging sessions were conducted, including a baseline prior to starting treatments and three subsequent imaging sessions at approximately one-month intervals.

| Structure (SMILES) | bioavailability ([1]; at 10 mg/kg) [%] | B:P ratio (PO) ([1]; at 10 mg/kg) | Stability in SGF (Stability in SGF) | B:P ratio (IV) ([1]; at 10 mg/kg) | Plasma Stability (Plasma stability; @ 120 min) [% @] | clearance ([1]; iv, at 10 mg/kg) [mL/min/kg] | also measured |
| --- | --- | --- | --- | --- | --- | --- | --- |
| CCCCC(Cc1c[nH]c2ccc(F)cc12)NC(=O)c1cnc(CCN2CCOCC2)s1 (centres unmarked) [Example 10, N-(1-(5-Fluoro-1H-indol-3-yl)hexan-2-yl)-2-(2-morpholinoethyl)thiazole-5-carboxamide] | 13 | 0.15 |  |  |  |  | clearance ([1]; intravenous, at 2 mg/kg): 75 mL/min/kg; B:P ratio (IV) ([1]; at 2 mg/kg): 0.8 |
| CCCNC(=O)NC(Cc1c[nH]c2ccccc12)NC(=O)c1cnc(N2CCN(C)CC2)s1 (centres unmarked) [Comp. B, reference compound] | 14 | 0.08 | unstable | 0.1 |  |  | Plasma Stability (Plasma stability; @ 60 min): 89% @; clearance ([1]; intravenous, at 10 mg/kg): 258 mL/min/kg |
| CN1CCN(CCc2ncc(C(=O)NCCc3c[nH]c4ccccc34)s2)CC1 [Example 4, N-(2-(1H-Indol-3-yl)ethyl)-2-(2-(4-methylpiperazin-1-yl)ethyl)thiazole-5-carboxamide] | 100 | 0.1 | stable | 0.4 | 25 | 95 |  |
| CCCCC(Cc1c[nH]c2ccccc12)NC(=O)c1cnc(CCN2CCN(C)CC2)s1 (centres unmarked) [Example 5, N-(1-(1H-Indol-3-yl)hexan-2-yl)-2-(2-(4-methylpiperazin-1-yl)ethyl)thiazole-5-carboxamide] | 79 | 0.05 | stable | 0.18 | 100 | 24 |  |
| CCCC[C@H](Cc1c[nH]c2ccccc12)NC(=O)c1cnc(N2CCN(C)CC2)s1 [Example 28, (R)-N-(1-(1H-Indol-3-yl)hexan-2-yl)-2-(4-methylpiperazin-1-yl)thiazole-5-carboxamide] | 14 | 0.4 |  | 2.1 |  | 69 |  |
| CCCCNC(=O)C(Cc1c[nH]c2ccccc12)NC(=O)c1cnc(N2CCNCC2)s1 (centres unmarked) [Comp. A, reference compound] |  | 0.05 | stable |  |  |  | Plasma Stability (Plasma stability; @ 60 min): 35% @; clearance ([1]; intravenous, at 10 mg/kg): 71 mL/min/kg |
| CCCCC(Cc1c[nH]c2ccccc12)NC(=O)c1cnc(N2CCN(C)CC2)s1 (centres unmarked) [Example 1, N-(1-(1H-Indol-3-yl)hexan-2-yl)-2-(4-methylpiperazin-1-yl)thiazole-5-carboxamide] | 53 | 0.4 | stable | 2.0 | 100 | 81 | number of slips, Round Beam Task ([2]; 1 mg/kg i.p. once daily): statistically significantly reductions in slips; number of slips, Round Beam Task ([2]; 5 mg/kg i.p. once daily): statistically significantly reductions in slips; number of slips, Round Beam Motor Performance assay ([2]; 0.5 mg/kg): non-statistically significant decrease in slips; number of slips, Round Beam Motor Performance assay ([2]; 1 mg/kg, p<0.01 vs. vehicle-treated ASYN transgenic mice): statistically significant improvement (decreased slips); transgenic ASYN protein levels [3]: statistically significant reductions; oligomers (A11 immunostaining) in cytosolic fraction of frontal cortex [4]: statistically significant decrease in oligomers; alpha-synuclein immunolabeling in cortical neuropil ([5]; 1 mg/kg): statistically significant decreases in alpha-synuclein immunolabeling; number of ASYN immunolabeled neuron cell bodies ([5]; 5 mg/kg): non-statistically significant decrease; alpha-synuclein immunolabeling in cortical neuropil ([5]; 5 mg/kg): statistically significant decreases in alpha-synuclein immunolabeling; number of fecal boli produced ([6]; ASYN transgenic mice, 0.5 mg/kg, p<0.05 vs. vehicle): restored function; number of fecal boli produced ([6]; ASYN transgenic mice, 1 mg/kg, p<0.001 vs. vehicle): restored function; number of fecal boli produced ([6]; non-transgenic mice): no effect; cardiac levels of ASYN ([7]; 0.5 mg/kg): statistically significant normalizations of ASYN levels; cardiac levels of ASYN ([7]; 1 mg/kg): statistically significant normalizations of ASYN levels; percentage of ASYN-GFP positive area in retinal images (PDNG78 transgenic mice; p<0.001 vs. vehicle): decreased; number of ASYN-GFP positive particles in retinae (PDNG78 transgenic mice; p<0.01 vs. vehicle): decreased |
| CCCC[C@@H](Cc1c[nH]c2ccccc12)NC(=O)c1cnc(N2CCN(C)CC2)s1 [Example 27, (S)-N-(1-(1H-Indol-3-yl)hexan-2-yl)-2-(4-methylpiperazin-1-yl)thiazole-5-carboxamide] | 57 | 0.3 |  | 1.4 |  | 37 |  |
